Results published in ChEMBL document CHEMBL4364281, “Design of wogonin-inspired selective cyclin-dependent kinase 9 (CDK9) inhibitors with potent in vitro and in vivo antitumor activity” (Eur J Med Chem, 2019).
≈ marks a conversion by molar mass, not a printed value. Calls of active or inactive are those of the source. The calls are words filed in the database; no cut-off is given here.

How the values were obtained:
[1] = test system: HepG2; assay: cells; conditions: Homo sapiens, HepG2, 72 h
Description: Antiproliferative activity against human HepG2 cells assessed as reduction in cell viability after 72 hrs by MTT assay

[2] = test system: MV4-11; assay: Antitumor activity against human MV4-11 cells xenografted in BALB/c mouse assessed as reduction in tumour growth at 5 mg/kg, iv administered every other day for 21 days; type: functional, organism-based
[3] = molecular target: CDK9/cyclin T1 (Homo sapiens, UniProt P50750)
CDK9/cyclin T1, sequence (O60563 whole entry): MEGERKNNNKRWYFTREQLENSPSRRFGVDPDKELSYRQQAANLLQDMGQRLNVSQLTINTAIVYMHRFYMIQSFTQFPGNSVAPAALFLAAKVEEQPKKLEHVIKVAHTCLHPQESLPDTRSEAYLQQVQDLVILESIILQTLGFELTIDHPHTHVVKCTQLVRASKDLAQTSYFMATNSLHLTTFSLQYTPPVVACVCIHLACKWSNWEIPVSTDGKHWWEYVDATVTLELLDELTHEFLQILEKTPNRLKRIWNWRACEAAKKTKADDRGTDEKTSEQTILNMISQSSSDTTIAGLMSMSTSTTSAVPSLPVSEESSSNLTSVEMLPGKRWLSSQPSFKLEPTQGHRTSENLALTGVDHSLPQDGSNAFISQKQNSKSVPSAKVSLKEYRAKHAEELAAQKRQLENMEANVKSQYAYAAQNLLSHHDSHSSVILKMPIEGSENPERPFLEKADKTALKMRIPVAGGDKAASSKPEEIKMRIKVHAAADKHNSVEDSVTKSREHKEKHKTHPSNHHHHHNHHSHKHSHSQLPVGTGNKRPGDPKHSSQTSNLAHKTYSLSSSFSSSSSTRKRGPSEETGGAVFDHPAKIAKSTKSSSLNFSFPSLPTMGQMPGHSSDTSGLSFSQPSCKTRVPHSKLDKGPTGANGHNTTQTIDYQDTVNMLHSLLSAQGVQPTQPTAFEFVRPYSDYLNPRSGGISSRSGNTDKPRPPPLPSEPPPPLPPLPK
CDK9/cyclin T1, sequence (P50750 whole entry): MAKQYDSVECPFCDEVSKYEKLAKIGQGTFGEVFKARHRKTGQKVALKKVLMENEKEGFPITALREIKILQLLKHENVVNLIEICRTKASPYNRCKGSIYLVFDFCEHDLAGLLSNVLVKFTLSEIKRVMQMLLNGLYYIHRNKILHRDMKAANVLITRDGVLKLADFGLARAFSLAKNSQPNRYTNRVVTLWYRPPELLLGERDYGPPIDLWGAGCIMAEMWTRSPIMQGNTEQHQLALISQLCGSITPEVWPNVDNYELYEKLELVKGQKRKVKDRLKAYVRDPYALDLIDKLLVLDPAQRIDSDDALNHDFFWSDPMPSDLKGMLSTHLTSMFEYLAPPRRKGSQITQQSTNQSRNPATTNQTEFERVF

[4] = molecular target: CDK2/Cyclin A2 (Homo sapiens, UniProt P24941+P20248)
Description: (§1) Inhibition of human CDK2/cyclin-A2 using H1 histone as substrate after 2 hrs by [gamma-33P]-ATP assay

[5] = test system: A549; assay: cells; conditions: Homo sapiens, A549, 72 h
Description: Antiproliferative activity against human A549 cells assessed as reduction in cell viability after 72 hrs by MTT assay

[6] = test system: HCT-116; assay: cells; conditions: Homo sapiens, HCT-116, 72 h
Description: Antiproliferative activity against human HCT116 cells assessed as reduction in cell viability after 72 hrs by MTT assay

[7] = test system: MV4-11; assay: cells; conditions: Homo sapiens, MV4-11, 72 h
Description: Antiproliferative activity against human MV4-11 cells assessed as reduction in cell viability after 72 hrs by MTT assay

[8] = molecular target: CDK2/Cyclin A2 (Homo sapiens, UniProt P24941)
Description: as §1

[9] = physchem; conditions: methanesulfonic acid buffer, pH 4.5
Description: Solubility of compound in methanesulfonic acid buffer at pH 4.5

[10] = physchem
Description: Intrinsic solubility of compound by potentiometric titration assay

[11] = physchem; conditions: buffer, pH 7.4
Description: Hydrophobicity, log D of compound at pH 7.4

| Structure (SMILES) | IC50 [1] [µM] | other results |
| --- | --- | --- |
| CN1CCC(Oc2c(O)cc(O)c3c(=O)cc(-c4ccc(N5CCN(C)CC5)cc4)oc23)CC1 | 6.7 | – |
| COc1c(O)cc(O)c2c(=O)cc(-c3ccc(N4CCOCC4)cc3)oc12 | 78.3 | – |
| O=c1cc(-c2ccc(N3CCNCC3)cc2)oc2c(OCc3ccco3)c(O)cc(O)c12 | 8.3 | – |
| COc1c(O)cc(O)c2c(=O)cc(-c3ccc(N4CCNCC4)cc3)oc12 | 17.9 | – |
| COc1cccc2c1C(=O)c1c(O)c3c(c(O)c1C2=O)C[C@@](O)(C(=O)CO)C[C@@H]3O[C@H]1C[C@H](N)[C@H](O)[C@H](C)O1 | – | inhibition [2]: Active |
| O=c1cc(-c2ccc(N3CCNCC3)cc2)oc2c(OC3CCNC3)c(O)cc(O)c12 (stereo not given) | > 100 | – |
| O=c1cc(-c2ccc(N3CCNCC3)cc2)oc2c(OC3CCCC3)c(O)cc(O)c12 | 5.3 | – |
| COc1c(O)cc(O)c2c(=O)cc(-c3ccc(N4CCCC4)cc3)oc12 | > 100 | – |
| CN1CCC(Oc2c(O)cc(O)c3c(=O)cc(-c4ccc(N5CCNCC5)cc4)oc23)CC1 | 39.4 | – |
| CN1CCN(c2ccc(-c3cc(=O)c4c(O)cc(O)c(OC5CCCCC5)c4o3)cc2)CC1 | 27.8 | – |
| CC(C)Oc1c(O)cc(O)c2c(=O)cc(-c3ccc(N4CCNCC4)cc3)oc12 | 18 | IC50 [3]: 0.0941 µM; IC50 [4]: Not Active; IC50 [5]: 5.5 µM; IC50 [6]: 3.4 µM; IC50 [7]: 6.1 µM |
| COc1c(O)cc(O)c2c(=O)cc(-c3ccc(N4CCN(C)CC4)cc3)oc12 | 6.6 | – |
| CC(C)Oc1c(O)cc(O)c2c(=O)cc(-c3ccc(N4CCN(C)CC4)cc3)oc12 | 14.8 | IC50 [3]: 0.179 µM; IC50 [4]: Not Active; IC50 [5]: 4.1 µM; IC50 [6]: 12.8 µM; IC50 [7]: 6.3 µM |
| CN1CCN(c2ccc(-c3cc(=O)c4c(O)cc(O)c(OC5CCNC5)c4o3)cc2)CC1 (stereo not given) | > 100 | – |
| CN1CCN(c2ccc(-c3cc(=O)c4c(O)cc(O)c(OCc5ccco5)c4o3)cc2)CC1 | 7 | – |
| O=c1cc(-c2ccc(N3CCNCC3)cc2)oc2c(OC3CCCCC3)c(O)cc(O)c12 | 22.8 | – |
| CN1CCN(c2ccc(-c3cc(=O)c4c(O)cc(O)c(Oc5c[nH][nH]c5=O)c4o3)cc2)CC1 | 8.1 | – |
| Cc1n[nH]c(C)c1Oc1c(O)cc(O)c2c(=O)cc(-c3ccc(N4CCN(C)CC4)cc3)oc12 | 6.3 | IC50 [3]: 0.0127 µM; IC50 [8]: 0.83 µM; IC50 [5]: 2.5 µM; IC50 [6]: 3.3 µM; IC50 [7]: 2.2 µM |
| Cc1n[nH]c(C)c1Oc1c(O)cc(O)c2c(=O)cc(-c3ccc(N4CCNCC4)cc3)oc12 | 8.5 | IC50 [3]: 0.0108 µM; IC50 [8]: 1.04 µM; IC50 [5]: 5.5 µM; IC50 [6]: 4.8 µM; IC50 [7]: 4.4 µM; solubility [9]: 30 µg/mL (≈ 66.9 µM); solubility [10]: 1 µg/mL (≈ 2.23 µM); logD [11]: 2.91 |
| CN1CCN(c2ccc(-c3cc(=O)c4c(O)cc(O)c(OC5CCCC5)c4o3)cc2)CC1 | 15.8 | – |
| COc1c(O)cc(O)c2c(=O)cc(-c3ccc(N4CCCNCC4)cc3)oc12 | 18.2 | – |

Continued, in another order:

| IC50 [1] [µM] | Structure (SMILES) | other results |
| --- | --- | --- |
| > 100 | COc1c(O)cc(O)c2c(=O)cc(-c3ccccc3Cl)oc12 | – |
| 38.2 | COc1c(O)cc(O)c2c(=O)cc(-c3cccc(Br)c3)oc12 | – |
| 9.9 | COc1c(O)cc(O)c2c(=O)cc(-c3cccc(N4CCNCC4)c3)oc12 | – |
| 33.5 | COc1c(O)cc(O)c2c(=O)cc(-c3ccccc3Br)oc12 | – |
| 21.7 | COc1c(O)cc(O)c2c(=O)cc(-c3cccc(N4CCCNCC4)c3)oc12 | – |
| > 100 | COc1c(O)cc(O)c2c(=O)cc(-c3cccc(C(F)(F)F)c3)oc12 | – |
| 6.4 | CCN(CC)c1ccc(-c2cc(=O)c3c(O)cc(O)c(OC)c3o2)cc1 | – |
| > 100 | COc1c(O)cc(O)c2c(=O)cc(-c3ccccc3C(F)(F)F)oc12 | – |
| > 100 | COc1c(O)cc(O)c2c(=O)cc(-c3ccc([N+](=O)[O-])cc3)oc12 | – |
| > 100 | COc1c(O)cc(O)c2c(=O)cc(-c3cccc(N4CCOCC4)c3)oc12 | – |
| 13.1 | COc1c(O)cc(O)c2c(=O)cc(-c3cccc(N4CCN(C)CC4)c3)oc12 | – |
